In brackets after ≈: the same amount, converted by molar mass. Activity calls are given as the source filed them. The rule behind the calls is not given here.
Columns and labels:
[1] = target: T1, Deubiquitinase and deneddylase Dub1 (Chlamydia trachomatis serovar L2 (strain ATCC VR-902B / DSM 19102 /434/Bu), UniProt B0B9A0); assay: Inhibition of recombinant Chlamydia trachomatis DUB1 (130 to 401 residues) using Ub-Rh110Gly as fluorogenic substrate incubated for 60 mins by enzymatic analysis
T1 sequence (B0B9A0 whole entry): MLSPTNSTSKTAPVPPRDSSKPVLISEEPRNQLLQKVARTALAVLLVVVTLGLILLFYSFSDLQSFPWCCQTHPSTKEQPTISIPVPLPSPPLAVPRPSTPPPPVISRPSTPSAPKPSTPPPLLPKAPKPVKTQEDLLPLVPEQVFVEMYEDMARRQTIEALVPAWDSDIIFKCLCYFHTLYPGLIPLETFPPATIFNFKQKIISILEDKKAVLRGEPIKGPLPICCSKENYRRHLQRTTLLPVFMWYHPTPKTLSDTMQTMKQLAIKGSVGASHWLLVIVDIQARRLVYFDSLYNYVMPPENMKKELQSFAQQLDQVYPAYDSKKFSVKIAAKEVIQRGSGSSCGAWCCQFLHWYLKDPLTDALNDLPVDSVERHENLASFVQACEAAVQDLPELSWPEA

[2] = target: T2, Deubiquitinase and deneddylase Dub1 (Chlamydia trachomatis serovar L2 (strain ATCC VR-902B / DSM 19102 /434/Bu)) (UniProt B0B9A0); assay: Inhibition of recombinant Chlamydia trachomatis DUB1 (130 to 401 residues) using Ub-Rh110Gly as fluorogenic substrate at highest concentration incubated for 60 to 360 mins by enzymatic analysis; conditions: time 60-360 min
T2 sequence (whole entry): T1 sequence (B0B9A0 whole entry)

[3] = target: T2, Deubiquitinase and deneddylase Dub1 (Chlamydia trachomatis serovar L2 (strain ATCC VR-902B / DSM 19102 /434/Bu)); assay: Non-covalent inhibition of recombinant Chlamydia trachomatis DUB1 (130 to 401 residues) using Ub-Rh110Gly as fluorogenic substrate incubated for 10 to 360 mins by enzymatic analysis; conditions: time 10-360 min
[4] = target: T1, Deubiquitinase and deneddylase Dub1; assay: Binding affinity to recombinant Chlamydia trachomatis DUB1 (130 to 401 residues) assessed as inhibition constant using Ub-Rh110Gly as fluorogenic substrate incubated for 360 mins by Michaelis-Menten analysis
[5] = target: T1, Deubiquitinase and deneddylase Dub1; assay: Inhibition of recombinant Chlamydia trachomatis DUB1 (130 to 401 residues) using Ub-Rh110Gly as fluorogenic substrate incubated for 360 mins by enzymatic analysis
[6] = target: T2, Deubiquitinase and deneddylase Dub1 (Chlamydia trachomatis serovar L2 (strain ATCC VR-902B / DSM 19102 /434/Bu)); assay: Binding affinity to recombinant Chlamydia trachomatis DUB1 (130 to 401 residues) assessed as Kinact/Ki ratio using Ub-Rh110Gly as fluorogenic substrate incubated for 360 mins by Michaelis-Menten analysis
[7] = target: T2, Deubiquitinase and deneddylase Dub1 (Chlamydia trachomatis serovar L2 (strain ATCC VR-902B / DSM 19102 /434/Bu)); assay: Binding affinity to recombinant Chlamydia trachomatis DUB1 (130 to 401 residues) assessed as inactivation rate constant (Kinact) using Ub-Rh110Gly as fluorogenic substrate incubated for 360 mins by Michaelis-Menten analysis
[8] = target: T2, Deubiquitinase and deneddylase Dub1 (Chlamydia trachomatis serovar L2 (strain ATCC VR-902B / DSM 19102 /434/Bu)); assay: Inhibition of recombinant Chlamydia trachomatis DUB1 (130 to 401 residues) using Ub-Rh110Gly as fluorogenic substrate incubated for 60 mins by enzymatic analysis relative to control
HEp-2 = assay: Cytotoxicity against human HEp-2 cells assessed as reduction in cell viability at 4 to 256 ug/mL measured after 20 hrs by XTT assay; type: toxicity, cell-based; conditions: hep-2, 20 h, dose 4-256 µg/ml
HeLa = assay: Cytotoxicity against human HeLa cells assessed as cell viability at 4 to 256 ug/mL measured after 20 hrs by XTT assay; type: toxicity, cell-based; conditions: dose 4-256 µg/ml
[9] = target: T1, Deubiquitinase and deneddylase Dub1; assay: Inhibition of recombinant Chlamydia trachomatis DUB1 (130 to 401 residues) using Ub-Rh110Gly as fluorogenic substrate incubated for 20 mins by enzymatic analysis
Chlamydia trachomatis = assay: Anti-chlamydial activity against Chlamydia trachomatis serovar L2 infected in human HEp-2 cells assessed as inhibition of chlamydial inclusion incubated for 16 hrs by Alexa488/DAPI staining based immunofluorescence assay; type: functional, organism-based; conditions: serovar L2, HEp-2, 16 h
[10] = target: T1, Deubiquitinase and deneddylase Dub1; assay: Inhibition of recombinant Chlamydia trachomatis DUB1 (130 to 401 residues) using Ub-Rh110Gly as fluorogenic substrate incubated for 2 mins by enzymatic analysis
[11] = target: T2, Deubiquitinase and deneddylase Dub1 (Chlamydia trachomatis serovar L2 (strain ATCC VR-902B / DSM 19102 /434/Bu)); assay: Inhibition of recombinant Chlamydia trachomatis DUB1 (130 to 401 residues) using Ub-Rh110Gly as fluorogenic substrate at 100 to 500 uM incubated for 20 to 240 mins by enzymatic analysis relative to control; conditions: dose 100-500 µM, time 20-240 min
[12] = target: T2, Deubiquitinase and deneddylase Dub1 (Chlamydia trachomatis serovar L2 (strain ATCC VR-902B / DSM 19102 /434/Bu)); assay: Covalent inhibition of recombinant Chlamydia trachomatis DUB1 (130 to 401 residues) using Ub-Rh110Gly as fluorogenic substrate incubated for 10 to 360 mins by enzymatic analysis; conditions: time 10-360 min

| SMILES | IC50 ([1]; read-out: IC50) | further results |
| --- | --- | --- |
| N#Cc1nccc(C(=O)NCCc2c[nH]c3ccccc23)n1 | 23 µM | – |
| N#Cc1nccc(C(=O)NCc2c[nH]c3cccc(OCc4ccccc4)c23)n1 | 184 µM | – |
| N#Cc1ncc(C(=O)NCc2ccc(C(=O)NCc3ccccc3)c3ccccc23)cn1 | 10 µM | inhibition [2]: Active; Complete Inhibition Was Not Achieved; inhibition [3]: Active |
| N#Cc1nccc(NC(=O)Cc2c[nH]c3ccccc23)n1 | 175 µM | – |
| Cn1ccc(NC(=O)c2ccnc(C#N)n2)n1 | 47 µM | IC50 ([1]; read-out: pIC50 (converted)): 45.7 µM |
| N#Cc1ncc(NC(=O)Cc2c[nH]c3ccccc23)cn1 | 93 µM | – |
| N#Cc1nccc(C(=O)NCc2c[nH]c3ccccc23)n1 | 6.1 µM | Ki [4]: 314 µM; IC50 [5]: 1700 nM; Ratio [6]: 22.4 M⁻¹ s⁻¹; Kinact [7]: 0.422 min⁻¹ |
| N#Cc1ncc(C(=O)N2CCc3cc(C(=O)NCc4ccccc4)ccc3C2)cn1 | 77 µM | – |
| N#Cc1nccc(C(=O)NCc2n[nH]c3ccccc23)n1 | 19 µM | inhibition [8]: 100% |
| N#Cc1nccc(C(=O)NCc2c[nH]c3ccc(OCc4ccccc4)cc23)n1 | 2.9 µM | Activity (HEp-2): Toxic; Activity (HeLa): Non-toxic; inhibition [8]: 100% |
| N#Cc1nccc(C(=O)Nc2n[nH]c3ccccc23)n1 | 23 µM | inhibition [8]: 100% |
| COc1ccc2[nH]cc(CNC(=O)c3ccnc(C#N)n3)c2c1 | 5.7 µM | – |
| N#Cc1nc(C(=O)NCc2c[nH]c3ccccc23)co1 | – | Activity (HEp-2): Toxic; Activity (HeLa): Toxic; IC50 [9]: 3.1 µM; Ki [4]: 117 µM; IC50 (Chlamydia trachomatis): 32.2 µg/mL (≈ 121 µM); IC50 [10]: 16 µM |
| COc1ccccc1CNC(=O)[C@H]1CC[C@H](CNC(=O)c2cnc(C#N)nc2)CC1 | 122 µM | – |
| N#Cc1ncc(C(=O)NCc2cccc(C(=O)NCc3ccccc3)c2)cn1 | 22 µM | – |
| N#Cc1nccc(C(=O)NCc2c[nH]c3c(OCc4ccccc4)cccc23)n1 | 182 µM | – |
| N#Cc1nccc(C(=O)Nc2cc[nH]n2)n1 | 23 µM | – |
| N#Cc1nccc(C(=O)NCc2ccn(C(=O)Cc3ccccc3)n2)n1 | 23 µM | inhibition [11]: 100%; inhibition [12]: Active |
| Cn1cc(CNC(=O)c2ccnc(C#N)n2)c2ccccc21 | 15 µM | – |
| N#Cc1nccc(C(=O)NCc2c[nH]c3cc(OCc4ccccc4)ccc23)n1 | 15 µM | – |
| N#Cc1ncc(C(=O)NCc2ccc(C(=O)NCc3ccccc3)cc2)cn1 | 27 µM | inhibition [12]: Active |
| COc1ccc2c(CNC(=O)c3ccnc(C#N)n3)c[nH]c2c1 | 7.5 µM | – |

Reference: ChEMBL document CHEMBL6103628, “Structural Optimization of Covalent Inhibitors for Deubiquitinase ChlaDUB1 of Chlamydia trachomatis as Antibiotic Agents” (J Med Chem, 2025)
